In paper PMC9630261 (2022) one finds KD data, which are given here for two molecules.

What all share (experiment): fluorescence quenching titration of drug with DNA
Assay [1] deals with Q1 (DNA, aptamer) GACAAGGAAAATCCTTCAACGAAGTGGGTCG
Conditions: Na+ (50 mM NaH2PO4, adjusted with NaOH); pH 7.00, 20 °C; KD corrected for stoichiometry (per site).

Assay [2] has as its system Q2 (DNA, aptamer) GGCGACAAGGAAAATCCTTTCACGAAGTGGGTCGCCG
Conditions: Na+ (50 mM NaH2PO4, adjusted with NaOH); pH 7.00, 20 °C; KD corrected for stoichiometry (per site).

Assay [3] has as its system Q0 (DNA, aptamer) GGCGACAAGGAAAATCCTTCAACGAAGTGGGTCGCC
Conditions: Na+ (50 mM NaH2PO4, adjusted with NaOH); pH 7.00, 20 °C; KD corrected for stoichiometry (per site).

Assay [4] has as its system D0-L-thioate-C16 (DNA, duplex, phosphorothioate at all 23 linkages) CGCGCGCGCGCGCGCGCGCGCGCG
The settings on record: in serum (mouse serum), 37 °C, KD corrected for stoichiometry (per site).

For assay [5], the system named is D1 (same sequence as G-quad) (DNA, G4) GGGCTTTTGGGC
The settings on record: K+ (50 mM K2HPO4, 100 mM KCl per Methods; Table S2 says phosphate sodium), pH 7.00, 20 °C, KD corrected for stoichiometry (per site).

Assay [6] relates to D0-L-thioate (DNA, duplex, phosphorothioate at all 23 linkages) CGCGCGCGCGCGCGCGCGCGCGCG
The settings on record: in serum (mouse serum), 37 °C, KD corrected for stoichiometry (per site).

The subject of assay [7] is D0-thioate (D0-PS) (DNA, duplex, phosphorothioate at all 11 linkages) CGCGCGCGCGCG
The settings on record: in serum (mouse serum), 37 °C, KD corrected for stoichiometry (per site).

For assay [8], the system named is D0 (DNA, duplex) CGCGCGCGCGCG
Conditions: Na+ (50 mM Na2HPO4, 100 mM NaCl), pH 7.00, 20 °C, KD corrected for stoichiometry (per site).

Assay [9] relates to D2 (DNA, G4) GGTTGGTGTGGTTGG
The settings on record: K+ (50 mM K2HPO4, 100 mM KCl per Methods; Table S2 says phosphate sodium), pH 7.00, 20 °C, KD corrected for stoichiometry (per site).

For `C=C[C@H]1CN2CC[C@H]1C[C@H]2[C@H](O)c1ccnc2ccc(OC)cc12`, the KD in [1] was 198 ± 6 nM; in assay [2], 2740 ± 200 nM; in assay [3], 89.7 ± 10 nM.

Turning to `COc1cccc2c1C(=O)c1c(O)c3c(c(O)c1C2=O)C[C@@](O)(C(=O)CO)C[C@@H]3O[C@H]1C[C@H](N)[C@H](O)[C@H](C)O1`, the dissociation constant (KD) in [4] came out at 578 ± 100 nM; in assay [5], 703 ± 80 nM; in assay [6], 592 ± 100 nM; in [7], 1020 ± 20 nM; in assay [8], 133 ± 20 nM; in assay [9] it was 3760 ± 300 nM.
